Earlier results as cited in patent US20230139565A1 (GLANIS PHARMACEUTICALS, INC., priority 2020, published 2023).
Where a name gives a salt, the structure may show the parent alone.

Assays:
[1] = test system: albumin and aphal-acid glycoprotein
[2] = not given; remark: listed apart in the source

Row | terminal half-life based on blood concentration (blood) | time of peak concentration (following 200 mg oral dose) | peak concentration in blood (following 200 mg oral dose, blood) | plasma concentration (peak) (following 200 mg oral dose, plasma) | half-life (in vivo) | volume of distribution (in vivo) | oral bioavailability (oral tablet) | protein binding [1] | solubility in alcohol, chloroform, and in ether ([2]; alcohol, chloroform, ether) | solubility in water ([2]; water) | Compound
1 | 30 to 60 days | around 3 hours | around 129.6 ng/ml | around 50.3 ng/ml | ~2.08 days | high volume of distribution | about 75% | ~40% |  |  | CCN(CCO)CCCC(C)Nc1ccnc2cc(Cl)ccc12 (stereo not shown) [HCQ, Hydroxychloroquine]
2 |  |  |  |  |  |  |  |  | practically insoluble | freely soluble | CCN(CCO)CCCC(C)Nc1ccnc2cc(Cl)ccc12 (stereo not shown) [Hydroxychloroquine sulfate]
